Test results reported in USRE35044E, “Cyanine compounds” (Asahi Chemical Co., Ltd., priority 1987, dated 1995).
One block for each molecule: values may come before it.

What was measured:
[1] = Test for solubility in solvent; type: physicochemical
Description: Each of cyanine dyes as shown below in Table 2 was dissolved in methanol and the solubility was determined at room temperature with the results indicated below in Table 2.

[2] = Absorption maximum and molar absorptivity in solution; type: physicochemical; design: ε: unit not given here

SMILES: CCOc1ccc2c(c1)C(C)(C)C(=CC=CC=CC=CC1=[N+](C)c3ccc(OCC)cc3C1(C)C)N2C [Compound A]
- solubility in solvents (in words) [1]: does not exhibit good solubility

SMILES: CCOc1ccc2c(c1)C(C)(C)C(=CC=CC=CC1=[N+](C)c3ccc(OCC)cc3C1(C)C)N2C [Compound B]
- solubility in solvents (in words) [1]: not satisfactory in solubility

The next lines start with the values.

- ε ([2]; alcohol): 1.84×10^5
- λmax ([2]; alcohol): 693 nm
SMILES: CCN1C(=CC=CC=CC2=[N+](CC)c3c(OC)cc(OC)cc3C2(C)C)C(C)(C)c2cc(OC)cc(OC)c21 [Preparation Example 1]

- ε ([2]; dichloromethane): 1.72×10^5
SMILES: CCOc1cc(OCC)c2c(c1)C(C)(C)C(=CC=CC=CC1=[N+](CC)c3c(OCC)cc(OCC)cc3C1(C)C)N2CC [Preparation Example 2]

- ε ([2]; dichloroethane): 1.75×10^5
SMILES: CCOc1cc(C)c2c(c1)C(C)(C)C(=CC=CC=CC1=[N+](CC)c3c(C)cc(OCC)cc3C1(C)C)N2CC [Preparation Example 7]
